In PMC4151564 (Journal of medicinal chemistry, 2011):

How the values were obtained:
[1] = target: T1, eukaryotic topoisomerase IIα (Homo sapiens, UniProt P11388); experiment: Topo-IIα inhibition, agarose gel supercoiled DNA relaxation assay; type: biochemical; conditions: for Topo-IIα inhibition at 100 μM: 100 μM TSC ligand, gel Figure 1B
[2] = target: T1, eukaryotic topoisomerase IIα; conditions: read-out: Topo-IIα inhibition IC50; literature range; cited from earlier work
Topo-IIα = conditions: cited from earlier work
[3] = target: T1, eukaryotic topoisomerase IIα; experiment: Gel-based Topo-IIα inhibition mechanism assay; type: biochemical; conditions: 500 μM inhibitor, 4 units enzyme

T1 sequence (P11388 whole entry): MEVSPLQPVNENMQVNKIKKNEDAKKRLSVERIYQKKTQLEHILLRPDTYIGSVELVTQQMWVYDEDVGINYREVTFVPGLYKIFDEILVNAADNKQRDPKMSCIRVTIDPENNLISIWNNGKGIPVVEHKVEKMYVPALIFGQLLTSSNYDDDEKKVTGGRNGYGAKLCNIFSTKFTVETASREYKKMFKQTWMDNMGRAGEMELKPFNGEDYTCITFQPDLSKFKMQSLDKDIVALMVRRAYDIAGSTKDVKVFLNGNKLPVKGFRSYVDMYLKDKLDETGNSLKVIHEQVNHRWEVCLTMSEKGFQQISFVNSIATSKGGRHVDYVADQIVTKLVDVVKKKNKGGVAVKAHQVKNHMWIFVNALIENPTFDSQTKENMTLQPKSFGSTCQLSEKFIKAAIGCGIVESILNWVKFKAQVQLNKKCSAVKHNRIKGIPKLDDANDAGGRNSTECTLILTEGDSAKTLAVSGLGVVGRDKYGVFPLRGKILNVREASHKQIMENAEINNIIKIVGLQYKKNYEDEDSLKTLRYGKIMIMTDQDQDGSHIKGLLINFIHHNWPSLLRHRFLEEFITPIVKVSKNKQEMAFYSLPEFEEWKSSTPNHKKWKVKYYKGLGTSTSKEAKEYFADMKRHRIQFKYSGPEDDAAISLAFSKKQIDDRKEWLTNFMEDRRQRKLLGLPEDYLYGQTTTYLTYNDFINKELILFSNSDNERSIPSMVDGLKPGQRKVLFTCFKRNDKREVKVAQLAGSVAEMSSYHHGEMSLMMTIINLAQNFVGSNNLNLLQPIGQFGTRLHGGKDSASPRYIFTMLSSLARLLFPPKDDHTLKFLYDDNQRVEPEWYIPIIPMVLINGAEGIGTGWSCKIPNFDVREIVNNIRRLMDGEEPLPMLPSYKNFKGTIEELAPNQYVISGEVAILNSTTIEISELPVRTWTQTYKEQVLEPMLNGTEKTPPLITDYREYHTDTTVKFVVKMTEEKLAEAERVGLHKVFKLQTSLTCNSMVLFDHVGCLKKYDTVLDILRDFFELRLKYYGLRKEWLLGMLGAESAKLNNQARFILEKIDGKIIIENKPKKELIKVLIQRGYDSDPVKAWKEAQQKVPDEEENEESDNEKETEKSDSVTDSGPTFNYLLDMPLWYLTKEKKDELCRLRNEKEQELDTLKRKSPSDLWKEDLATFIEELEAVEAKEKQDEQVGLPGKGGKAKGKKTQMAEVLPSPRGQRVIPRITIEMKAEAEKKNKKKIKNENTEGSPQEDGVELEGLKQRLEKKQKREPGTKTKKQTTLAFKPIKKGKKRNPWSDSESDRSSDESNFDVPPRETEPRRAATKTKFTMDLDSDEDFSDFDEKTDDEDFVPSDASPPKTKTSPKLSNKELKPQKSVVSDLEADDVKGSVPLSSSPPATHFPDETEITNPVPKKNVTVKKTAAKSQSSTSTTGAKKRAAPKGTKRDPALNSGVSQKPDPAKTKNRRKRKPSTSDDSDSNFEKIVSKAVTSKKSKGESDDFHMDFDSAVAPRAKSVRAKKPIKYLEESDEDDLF

Molecule | Topo-IIα inhibition at 100 μM [1] | Topo-IIα inhibition mechanism (formation of linear DNA) [3] | further results
CNC(=S)N/N=C/c1ccccn1 [HFp4mT, (E)-N-Methyl-2-(pyridin-2-ylmethylene) hydrazinecarbothioamide] | displaying any degree of inhibition | – | –
COc1cccc2c1C(=O)c1c(O)c3c(c(O)c1C2=O)C[C@@](O)(C(=O)CO)C[C@@H]3O[C@H]1C[C@H](N)[C@H](O)[C@H](C)O1 [doxorubicin] | – | – | IC50 [2]: 1 to 5 µM
[Cl][Cu][Cl] [CuCl2] | – | – | Topo-IIα inhibition, control experiment ([1]; any concentrations below 500 μM): does not inhibit the enzyme
CNC(=S)N/N=C(\C)c1ccccn1 [HAp4mT, (E)-N-Methyl-2-(1-(pyridin-2-yl)ethylidene)hydrazinecarbothioamide] | displaying any degree of inhibition | – | –
CCNC(=S)N/N=C/c1ccccn1 [HFp4eT, (E)-N-Ethyl-2-(pyridin-2-ylmethylene)hydrazinecarbothioamide] | displaying any degree of inhibition | – | –
CCNC(=S)N/N=C(\C)c1ccccn1 [HAp4eT, (E)-N-Ethyl-2-(1-(pyridin-2-yl)ethylidene)hydrazinecarbothioamide] | displaying any degree of inhibition | – | –
CN(C)C(=S)NN=C(c1ccccn1)c1ccccn1 [Dp44mT, di-2-pyridylketone-4,4-dimethylthiosemicarbazone] | – | – | concentration at which in vivo Topo-IIα inhibition was found (Topo-IIα): < 1 µM
2-Formylpyridine-N^4-allylthiosemicarbazonatochlorocopper (II) [Cu(Fp4alT)Cl] | – | completely inhibits Topo-IIα without promoting the formation of linear DNA products | –
Cc1c2ccncc2c(C)c2c1[nH]c1ccccc12 [ellipticine] | – | produce discrete bands of linear DNA | –
COc1cc(NS(C)(=O)=O)ccc1Nc1c2ccccc2nc2ccccc12 [m-AMSA] | – | produce discrete bands of linear DNA | –
O=C1NC(=S)NC(=O)C1C(=O)Nc1ccccc1 [merbarone] | – | – | IC50 [2]: 40 to 50 µM
O=c1c(-c2ccc(O)cc2)coc2cc(O)cc(O)c12 [genistein] | – | produce discrete bands of linear DNA | –
